In ChEMBL document CHEMBL1128840, “Synthesis of myo-inositol-1-phosphatase inhibitors in which the phosphate group is replaced by less polar groups” (Bioorg Med Chem Lett, 1995):
pIC50: −log10 of the molar value.

Target: T1, Inositol monophosphatase 1 (Bos taurus, UniProt P20456)
T1 sequence (P20456 whole entry): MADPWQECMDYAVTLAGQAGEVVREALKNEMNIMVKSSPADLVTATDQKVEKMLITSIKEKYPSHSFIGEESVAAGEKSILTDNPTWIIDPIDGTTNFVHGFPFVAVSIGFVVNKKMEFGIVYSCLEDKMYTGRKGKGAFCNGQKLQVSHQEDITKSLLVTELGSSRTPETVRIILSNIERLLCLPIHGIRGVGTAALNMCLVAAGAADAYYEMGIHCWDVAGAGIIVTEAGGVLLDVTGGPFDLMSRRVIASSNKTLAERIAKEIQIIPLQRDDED
Assay: Inhibitory activity against myo-inositol-1-phosphatase; call rule not given here

Going from `CP(C)(=O)O[C@@H]1[C@H](O)C[C@@H](O)C[C@H]1OCCCCc1ccccc1O` to `O=P(O)(O)O[C@@H]1[C@H](O)C[C@@H](O)C[C@H]1OCCCCc1ccccc1O`, the pIC50 rises from under 3.52 to 6.52. The second is the more potent here.

Compared with `NS(=O)(=O)O[C@@H]1[C@H](O)C[C@@H](O)C[C@H]1OCCCCC1CCCCC1=O` (some centres not stated), `O=C1CCCCC1CCCCO[C@@H]1C[C@H](O)C[C@@H](O)[C@H]1OS(=O)(=O)O` (some centres not stated) is 0.30 log units higher in pIC50: 3.70 for the first, 4.00 for the second.

Compared with `CC(=O)NS(=O)(=O)O[C@@H]1[C@H](O)C[C@@H](O)C[C@H]1OCCCCc1ccccc1O`, `O=S(=O)(O)O[C@@H]1[C@H](O)C[C@@H](O)C[C@H]1OCCCCc1ccccc1O` is higher in pIC50: under 3.52 for the first, 4.05 for the second.

Compared with `NS(=O)(=O)O[C@@H]1[C@H](O)C[C@@H](O)C[C@H]1OCCCCc1ccccc1O`, `CC(C)OP(=O)(O)O[C@@H]1[C@H](O)C[C@@H](O)C[C@H]1OCCCCc1ccccc1O` is higher in pIC50: under 3.52 for the first, 4.30 for the second.

First: O=P(O)(O)O[C@@H]1[C@H](O)C[C@@H](O)C[C@H]1OCCCc1ccccc1
Second: CC(=O)NS(=O)(=O)O[C@@H]1[C@H](O)C[C@@H](O)C[C@H]1OCCCCC1CCCCC1=O (some centres not stated)
The pIC50 of the first is higher: 6.10 for the first, under 3.52 for the second. The first is the more potent here.

Target: T1, Inositol monophosphatase 1
Assay: Compound was tested for inhibitory activity against myo-inositol-1-phosphatase; compound was not active at 300 uM

`NC(=O)O[C@@H]1[C@H](O)C[C@@H](O)C[C@H]1OCCCCc1ccccc1O` was tested, and the IC50 was “Not Active”.

Target: T1, Inositol monophosphatase 1
Assay: Compound was tested for inhibitory activity against myo-inositol-1-phosphatase; weak inhibitor

In the case of `O=C(O)CO[C@@H]1[C@H](O)C[C@@H](O)C[C@H]1OCCCCc1ccccc1O`, the pIC50 was under 3.52.
